{"source": "patent US20100310450A1", "about": "“METHOD OF DIAGNOSIS AND AGENTS USEFUL FOR SAME” (MEDVET SCIENCE PTY. LTD., priority 2006, published 2010)", "key": {"[1]": {"test_system": "apoptotic Jurkat cells", "assay": "Inhibition by the TG2 inhibitor MDC of protein crosslinking and 3B9 binding in cisplatin-treated Jurkat cells", "format": "cell-based, human", "settings": "20 μg/mL cisplatin", "description": "FIG. 18 depicts that La antigen is crosslinked during apoptosis. (A) Jurkat cells incubated in 20 μg/mL cisplatin were removed at specified time points and incubated for 10 min. in 1% Triton X-100 solution before 3B9 binding analysis. Data are presented as density plots of staining with 3B9 vs. 7-AAD. (B) Immunoblots of cell lysates of control and cisplatin-treated Jurkat cells were probed with 3B9 for expression of La (top panels) or actin as a loading control (bottom panels) at specified times. (C) Jurkat cells incubated in the absence or presence of increasing concentrations of cisplatin were labeled with cadaverine-biotin added at 100 μM for 48 h. Cells were stained with strepatavidin-Alexa488 and analyzed by flow cytometry. Data shown are MFI±SEM (n=3). […] Cells were analyzed at specified times (24 □, 48 ? and 72 h ▪) for sulforhodamine 101 staining. […]\nTransglutaminase 2 (TG2)-mediated protein-protein crosslinking in apoptotic cells was investigated using a modification of a previously described method. […] Samples were vortexed and incubated for 5 min. before analysis by flow cytometry where fluorescence from Sytox Green and sulforhodamine were detected using FL-1 and FL-3, respectively. The degree of crosslinking in apoptotic cells was calculated as the ratio of the MFI of sulforhodamine staining in apoptotic cells to the MFI in control cells (protein crosslinking ratio). […]"}, "[2]": {"test_system": "Jurkat cells", "assay": "Apomab-specific binding to cisplatin-treated Jurkat cells with TSA", "format": "cell-based, human", "settings": "TSA added to 10 μg/mL cisplatin, 48 h", "description": "FIG. 36 depicts that the histone deacetylase inhibitor (HDACi) trichostatin A (TSA) exerts dose-dependent synergy with cisplatin to augment Apomab-specific binding to dead Jurkat cells. Jurkat cells were incubated for 48 h with 10 μg/mL cisplatin together with increasing concentrations of TSA. Cells were subjected to indirect immunofluorescence staining using Apomab or its Sal5 isotype control mAb and viability was assessed using 7-AAD. Apomab-specific binding was calculated as the Net MFI after gating on 7-AAD^+ events. Data are presented as the mean±SEM from two separate experiments. (A) Apomab-specific binding to cisplatin-treated Jurkat cells is plotted as a function of TSA concentration. […]\n(§1) Apoptosis or cell death was induced by adding cytotoxic drugs to culture media at the specified concentrations. […] Control (untreated) cells had ≧90% viability determined by PI or trypan blue staining (data not shown). […]\nIndirect immunofluorescence staining was performed using purified mouse antibodies at 5 μg/mL for 30 min. at room temperature (RT) in PBS followed by Alexa488-conjugated anti-mouse IgG at 2 μg/mL for 30 min. at RT in PBS. […] Cell viability was assessed by the exclusion of PI (0.5 μg/mL) and detected using the FL-2 channel (585 nm filter) or by the exclusion of 7-AAD (2 μg/mL for 15 min. at RT) and detected using the FL-3 channel (>650 nm filter). […]"}, "[3]": {"test_system": "PANC-1 cells", "assay": "MTS proliferation assay with TSA and gemcitabine", "format": "cell-based, human", "settings": "TSA alone", "description": "FIG. 40 depicts that gemcitabine and TSA synergise to reduce proliferation rates among PANC-1 cells in vitro. PANC-1 cells (2×10^4 cells) were seeded in flat bottom 96-well plates overnight using phenol-free RPMI-1640 medium containing 10% FCS (medium). A serial dilution of 2×10^4 cells was used to construct a standard curve for the MTS assay. Triplicate wells were incubated with increasing concentrations of TSA (nM) with or without the addition of increasing concentrations of gemcitabine. Three identical plates were incubated for 24, 48 or 72 h then medium was decanted and fresh medium (100 μL) containing 20 μL MTS/PMS substrate was added to all wells. Assays were performed according to the manufacturer's instructions. The change in the absorbance reading over time was calculated for each condition in units of change per 12 h (upper panel), which was converted to units of cell number change per 12 h (lower panel) using a standard curve of the absorbance reading as a function of […] (r^2=0.99)."}, "[4]": {"test_system": "PANC-1 cells", "assay": "Cell death (7-AAD) and 3B9-specific binding after gemcitabine and TSA", "format": "cell-based, human", "settings": "TSA alone; data not shown", "description": "FIG. 15 depicts that 3B9 binding to dead PANC-1 cells is augmented after combination treatment with gemcitabine and TSA produced additive cytotoxicity and DNA-damaging effects. PANC-1 cells were incubated with increasing concentrations of gemcitabine in the absence (clear columns) or presence of 100 ng/mL (hatched columns) or 200 ng/mL (filled columns) of TSA. Analysis was done for viability using 7-AAD (A), 3B9-specific binding (B) and DNA damage using γH2AX staining (C). Data are presented as mean±SEM from three independent experiments. Photomicrographs show PANC-1 cells treated with gemcitabine and TSA (+) or not (−), which were stained with γH2AX-specific mAb and 7-AAD (D).\nPANC-1 cells (2×10^4 cells) were seeded in flat bottom 96-well plates overnight using phenol-free RPMI-1640 medium containing 10% FCS (medium). Cells were incubated with the specified concentrations of gemcitabine or TSA singly or in combination. Cells were collected (from media and EDTA detached adherent cells) and subjected to indirect immunofluorescence staining with Apomab or its Sal5 isotype control mAb and assessed for viability with 7-AAD staining. […]\nas §1"}, "[5]": {"test_system": "Raji", "assay": "Binding of La-specific mAb (3B9-FITC) to apoptotic human cancer cell lines, dual-colour flow cytometry", "settings": "2 μM staurosporine, 20 μg/mL etoposide or 0.1 μg/mL vincristine, 3B9-FITC and PI"}}}
{"smiles": "CN(C)c1cccc2c(S(=O)(=O)NCCCCCN)cccc12", "note": "[MDC, monodansylcadaverine]", "values": [{"measurement": "effect on protein crosslinking (sulforhodamine crosslinking ratio)", "setting": "[1]", "result": "dose-dependent inhibitory effect"}]}
{"smiles": "CC(/C=C/C(=O)NO)=C\\[C@@H](C)C(=O)c1ccc(N(C)C)cc1", "note": "[TSA, trichostatin A]", "values": [{"measurement": "Apomab-specific binding to dead Jurkat cells", "setting": "[2]", "result": "dose-dependent increase"}, {"measurement": "effect on proliferation of PANC-1 cells", "setting": "[3]", "result": "inhibited proliferation"}, {"measurement": "3B9 binding in comparison with control PANC-1 cells", "setting": "[4]", "result": "did not alter 3B9 binding"}]}
{"smiles": "CC[C@]1(O)C[C@H]2CN(CCc3c([nH]c4ccccc34)[C@@](C(=O)OC)(c3cc4c(cc3OC)N(C=O)[C@H]3[C@@](O)(C(=O)OC)[C@H](OC(C)=O)[C@]5(CC)C=CCN6CC[C@]43[C@@H]65)C2)C1", "note": "[Vincristine, vincristine]", "values": [{"measurement": "percentages of PI+ and 3B9+ events after subtraction of control (PI+ and Sal5+) events", "setting": "[5]", "result": 9.8, "unit": "%"}]}
